Test results taken from patent US11364231B2, “Methods of treating radiation induced gastrointestinal syndrome (RIGS) and related disease states using YEL002/BCN057” (priority 2017, dated 2022).
Entries after “also recorded” stand apart in the source; their conditions may differ.

What was measured:
NCI 60 cancer cell lines = assay: NCI 60 cancer cell line screen; format: cell-based; settings: BCN057 10 uM, 48 hours, sulforhodamine B assay
Protocol: (§1) BCN057 was first examined in the National Cancer Institute (NCI) 60 cancer cell line platform. Several of these cell lines are known to be positive for dysregulation of the Wnt/b-catenin signaling pathway. […] Next we examined the effect of BCN057 in human colonic tumor derived organoids exposed to irradiation.
100 μL of each cell preparation was tested in accordance with its particular type and density, ranging from 5000-40,000 cells per well in a 96-well microtiter plate, corresponding to their own growth rate. BCN057 was evaluated 10 uM and incubation for 48 hours in a 5% CO2 atmosphere with 100% humidity. Proliferation was assayed using the sulforhodamine B assay with a plate reader to read the optical densities.

[1] = system: C57B16 mice exposed to PBI (BM40); assay: Survival after partial body irradiation (PBI, BM40); format: in vivo; settings: 14.5 Gy PBI (BM40), BCN057 at 24 hrs post PBI; untreated dead within 12 days
From the text: FIG. 1C. Kaplan Meier survival analysis of C57B16 mice (n=25/group) exposed to PBI (BM40). Head & Neck and upper extremities were shielded to spare 40% of bone marrow.
Unless there has been a very focal radiation exposure there will also be involvement of many other organ systems, and their differential responses to various doses of irradiation will impact the gastrointestinal acute radiation syndrome (GI-ARS) dose response. All radiation doses inducing GI-ARS will have a major impact on the bone marrow, which in turn will affect the levels of intestinal inflammation and ability of the body to manage the infection resulting from bacterial translocation through an impaired intestinal mucosal barrier. To investigate involvement of bone marrow in survival outcome upon BCN057 treatment, C57B16 mice were exposed to partial body irradiation (PBI) where 40% of total bone marrow was […] to irradiation after shielding head and fore limbs. Treatment with BCN057 at 24 hrs post exposure of 14.5 Gy PBI rescued 70% of mice from radiation lethality (p<0.0001). However, all the untreated mice were dead within 12 days post-exposure (FIG. 1C).

WNT target genes = assay: qPCR of WNT target genes in irradiated human colonic organoids; format: cell-based; settings: epithelial cells from irradiated human colonic organoids treated with BCN057
Protocol: (B-C, Data was the average of 3 human subjects).
To examine the effect of BCN057 on human intestinal, epithelial tissue surgical specimen collected from normal colon at least 10 cm apart from malignant site was used to develop ex vivo crypt organoid. At a dose level of 8 Gy all the budding crypts have been disappeared in the organoids. […] The effect of BCN057 on mRNA level of β-catenin target genes in organoids was also evaluated.

[2] = system: irradiated intestinal epithelium (jejunum); assay: Jejunum histology and crypt proliferation after AIR; format: in vivo
[3] = system: human malignant colonic organoids; assay: Human colon tumor derived organoids with or without irradiation; format: cell-based
From the text: FIG. 16. […] Organoids derived from surgical specimen of colon tumor were exposed to irradiation (8Gy) and then treated with BCN057. Note loss of budding crypt like structure in Irradiated organoids treated with BCN057.
FIG. 17. […] Budding crypt to total crypt ratio reduced in a dose dependent manner following irradiation (2-8 Gy).
as §1

## COc1ccc2cc(-c3nc4ccc(C)cn4c3NCc3ccco3)c(=O)[nH]c2c1 [BCN057, 3-(3((furan-2-ylmethyl)ammo)-6-methylimidazo[1,2-a]pyridine-2-yl)-6-methoxyquinolin-2(1H)-one]
NCI 60 cancer cell lines
  proliferative response: None of these cells showed any proliferative response
[1]
  survival: 70%
WNT target genes
  mRNA level of WNT / β-catenin target genes: several fold increase; also recorded: increases
[2]; BCN057 treated vs untreated irradiated control, p<0.0005
  percent of BrdU+ve crypt epithelial cells: significantly higher
[2]; non-irradiated mice treated with BCN057
  crypt villus morphology and BRDU incorporation: did not induce any changes
[3]; 8Gy (2-8 Gy in FIG. 17), BCN057 10 uM at 1 hr post radiation
  rescue of malignant organoids from radiation toxicity: did not recue organoids from radiation toxicity; also recorded: did not rescue; also recorded: could not reduce the radiation toxicity
[3]; un-irradiated organoids treated with BCN057
  growth and proliferation of malignant organoid: inhibitory effect
